These results are taken from patent US8927500B2, “Peptidomimetic macrocycles” (Aileron Therapeutics, Inc., priority 2012, dated 2015).

The target in assay [1] is T1, MDMX (Homo sapiens, UniProt O15151).
T1 sequence (O15151 1-125): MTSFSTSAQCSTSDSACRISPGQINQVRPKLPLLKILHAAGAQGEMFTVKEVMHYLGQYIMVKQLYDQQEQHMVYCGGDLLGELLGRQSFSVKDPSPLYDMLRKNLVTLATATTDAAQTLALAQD
Description: Competitive fluorescence polarization assay for MDMX. The assay is classed as binding. The note with it: competitive FP assay; for IC50: read-out: IC50 (MDMX); for Ki: read-out: Ki (MDMX). (In general: Polarisation of emitted light reports the rotation of a fluorescent probe.)

Assay [2] addresses MDM2 (Homo sapiens, UniProt Q00987). Nature of the assay: Competitive fluorescence polarization assay for MDM2. The assay is classed as binding. The note with it: competitive FP assay, MDM2; for IC50: read-out: IC50 (MDM2); for Ki: read-out: Ki (MDM2).

Molecules are shown by their SMILES. Where a SMILES comes first, the peptide text is derived from it. Bridges are numbered along the chain shown (N, C = ends). [ ]: non-standard residue; d: D form. R8 = C=CCCCCCC[C@@](C)(N)C(=O)O; Cba = N[C@@H](CC1CCC1)C(=O)O; S5 = C=CCCC[C@](C)(N)C(=O)O; Nle = CCCC[C@H](N)C(=O)O A value given as a limit tells only on which side of the number the result lay.

MDM2, sequence (Q00987 1-125): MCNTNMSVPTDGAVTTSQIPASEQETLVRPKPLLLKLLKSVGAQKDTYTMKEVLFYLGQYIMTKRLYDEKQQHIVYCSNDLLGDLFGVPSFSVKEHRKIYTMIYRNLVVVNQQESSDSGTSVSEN

As to `CC(=O)N[C@@H](CC(C)C)C(=O)N[C@H](C(=O)N[C@@H](Cc1ccccc1)C(=O)N[C@]1(C)CCCCCCC=CCCC[C@@](C)(C(=O)N[C@@H](CO)C(=O)N[C@@H](C)C(=O)N[C@@H](CCCNC(=N)N)C(N)=O)NC(=O)[C@H](CC2CCC2)NC(=O)[C@H](CCC(N)=O)NC(=O)[C@H](C)NC(=O)[C@H](Cc2c[nH]c3ccccc23)NC(=O)[C@H](Cc2ccc(O)cc2)NC(=O)[C@H](CCC(=O)O)NC1=O)[C@@H](C)O` [compound 366] (Ac-LTF[R8]EYWAQ[Cba][S5]SAR-NH2; staple 4-11), in assay [1], the IC50 lay in the range of 10 to 100 nM and the inhibition constant (Ki) lay in the range of 10 to 100 nM. In assay [2], the half-inhibitory concentration (IC50) lay within 10 to 100 nM and the inhibition constant (Ki) is below 10 nM.
Consider `CCCC[C@H](NC(=O)[C@H](C)NC(=O)[C@H](C)NC(=O)[C@]1(C)CCCC=CCCCCCC[C@@](C)(NC(=O)[C@H](Cc2ccccc2)NC(=O)[C@H](C)NC(=O)[C@H](CC(C)C)NC(C)=O)C(=O)N[C@@H](CCC(=O)O)C(=O)N[C@@H](Cc2ccc(O)cc2)C(=O)N[C@@H](Cc2c[nH]c3ccccc23)C(=O)N[C@@H](C)C(=O)N[C@@H](CCC(N)=O)C(=O)N[C@@H](CC(C)C)C(=O)N1)C(=O)N[C@@H](C)C(N)=O` [compound 369] (Ac-LAF[R8]EYWAQL[S5]AA[Nle]A-NH2; staple 4-11), for which, in assay [1], the IC50 was in the range of 100 to 1000 nM and the inhibition constant Ki lay within 10 to 100 nM. In addition, in assay [2], the IC50 fell in the range of 100 to 1000 nM and the Ki lay in the range of 10 to 100 nM.
`CCCC[C@H](NC(=O)[C@H](C)NC(=O)[C@H](C)NC(=O)[C@]1(C)CCCC=CCCCCCC[C@@](C)(NC(=O)[C@H](Cc2ccccc2)NC(=O)[C@@H](NC(=O)[C@H](C)NC(C)=O)[C@@H](C)O)C(=O)N[C@@H](CCC(=O)O)C(=O)N[C@@H](Cc2ccc(O)cc2)C(=O)N[C@@H](Cc2c[nH]c3ccccc23)C(=O)N[C@@H](C)C(=O)N[C@@H](CCC(N)=O)C(=O)N[C@@H](CC(C)C)C(=O)N1)C(=O)N[C@@H](C)C(N)=O` [compound 370] (Ac-ATF[R8]EYWAQL[S5]AA[Nle]A-NH2; staple 4-11): in assay [1], the IC50 lay within 10 to 100 nM and the Ki lay within 10 to 100 nM. Besides, in assay [2], the IC50 lay within 10 to 100 nM and the Ki is below 10 nM.
`CCCC[C@H](NC(=O)[C@H](C)NC(=O)[C@H](C)NC(=O)[C@]1(C)CCCC=CCCCCCC[C@@](C)(NC(=O)[C@H](Cc2ccccc2)NC(=O)[C@H](C)NC(=O)[C@H](C)NC(C)=O)C(=O)N[C@@H](CCC(=O)O)C(=O)N[C@@H](Cc2ccc(O)cc2)C(=O)N[C@@H](Cc2c[nH]c3ccccc23)C(=O)N[C@@H](C)C(=O)N[C@@H](CCC(N)=O)C(=O)N[C@@H](CC(C)C)C(=O)N1)C(=O)N[C@@H](C)C(N)=O` [compound 371] (Ac-AAF[R8]EYWAQL[S5]AA[Nle]A-NH2; staple 4-11): in assay [1], the IC50 is 100 to 1000 nM and the Ki lay in the range of 10 to 100 nM. Moreover, in assay [2], the concentration for half-maximal inhibition (IC50) fell in the range of 100 to 1000 nM and the inhibitory constant (Ki) lay within 10 to 100 nM.
Regarding `CCCC[C@H](NC(=O)[C@H](C)NC(=O)[C@H](C)NC(=O)[C@]1(C)CCCC=CCCCCCC[C@@](C)(NC(=O)[C@H](Cc2ccccc2)NC(=O)[C@H](C)NC(=O)[C@H](C)NC(=O)[C@H](C)NC(C)=O)C(=O)N[C@@H](CCC(=O)O)C(=O)N[C@@H](Cc2ccc(O)cc2)C(=O)N[C@@H](Cc2c[nH]c3ccccc23)C(=O)N[C@@H](C)C(=O)N[C@@H](CCC(N)=O)C(=O)N[C@@H](CC(C)C)C(=O)N1)C(=O)N[C@@H](C)C(N)=O` [compound 372] (Ac-AAAF[R8]EYWAQL[S5]AA[Nle]A-NH2; staple 5-12), in assay [1], the IC50 lay within 100 to 1000 nM and the inhibition constant (Ki) is 10 to 100 nM. Moreover, in assay [2], the IC50 fell in the range of 100 to 1000 nM and the Ki fell in the range of 10 to 100 nM.
Take `CCCC[C@H](NC(=O)[C@H](C)NC(=O)[C@H](C)NC(=O)[C@]1(C)CCCC=CCCCCCC[C@@](C)(NC(=O)[C@H](Cc2ccccc2)NC(=O)[C@H](C)NC(=O)[C@H](C)NC(=O)[C@H](C)NC(=O)[C@H](C)NC(C)=O)C(=O)N[C@@H](CCC(=O)O)C(=O)N[C@@H](Cc2ccc(O)cc2)C(=O)N[C@@H](Cc2c[nH]c3ccccc23)C(=O)N[C@@H](C)C(=O)N[C@@H](CCC(N)=O)C(=O)N[C@@H](CC(C)C)C(=O)N1)C(=O)N[C@@H](C)C(N)=O` [compound 373] (Ac-AAAAF[R8]EYWAQL[S5]AA[Nle]A-NH2; staple 6-13): in assay [1], the IC50 lay within 10 to 100 nM and the inhibitory constant (Ki) lay in the range of 10 to 100 nM. In assay [2], the concentration for half-maximal inhibition (IC50) is 10 to 100 nM and the Ki was in the range of 10 to 100 nM.
For `CCCC[C@H](NC(=O)[C@H](C)NC(=O)[C@H](C)NC(=O)[C@]1(C)CCCC=CCCCCCC[C@@](C)(NC(=O)[C@H](Cc2ccccc2)NC(=O)[C@@H](NC(=O)[C@H](C)NC(=O)[C@H](C)NC(C)=O)[C@@H](C)O)C(=O)N[C@@H](CCC(=O)O)C(=O)N[C@@H](Cc2ccc(O)cc2)C(=O)N[C@@H](Cc2c[nH]c3ccccc23)C(=O)N[C@@H](C)C(=O)N[C@@H](CCC(N)=O)C(=O)N[C@@H](CC(C)C)C(=O)N1)C(=O)N[C@@H](C)C(N)=O` [compound 374] (Ac-AATF[R8]EYWAQL[S5]AA[Nle]A-NH2; staple 5-12), in assay [1], the IC50 lay within 10 to 100 nM and the Ki is below 10 nM. In addition, in assay [2], the concentration for half-maximal inhibition (IC50) was 10 to 100 nM and the Ki is below 10 nM.
Turning to `CCCC[C@H](NC(=O)[C@H](C)NC(=O)[C@H](C)NC(=O)[C@]1(C)CCCC=CCCCCCC[C@@](C)(NC(=O)[C@H](Cc2ccccc2)NC(=O)[C@@H](NC(=O)[C@H](CC(C)C)NC(=O)[C@H](C)NC(=O)[C@H](C)NC(C)=O)[C@@H](C)O)C(=O)N[C@@H](CCC(=O)O)C(=O)N[C@@H](Cc2ccc(O)cc2)C(=O)N[C@@H](Cc2c[nH]c3ccccc23)C(=O)N[C@@H](C)C(=O)N[C@@H](CCC(N)=O)C(=O)N[C@@H](CC(C)C)C(=O)N1)C(=O)N[C@@H](C)C(N)=O` [compound 375] (Ac-AALTF[R8]EYWAQL[S5]AA[Nle]A-NH2; staple 6-13), in assay [1], the IC50 lay within 10 to 100 nM and the inhibition constant Ki was below 10 nM. In assay [2], the IC50 is 10 to 100 nM and the Ki was below 10 nM.
Take `CCCC[C@H](NC(=O)[C@H](C)NC(=O)[C@H](C)NC(=O)[C@]1(C)CCCC=CCCCCCC[C@@](C)(NC(=O)[C@H](Cc2ccccc2)NC(=O)[C@@H](NC(=O)[C@H](CC(C)C)NC(=O)[C@H](C)NC(=O)[C@H](C)NC(=O)[C@H](C)NC(C)=O)[C@@H](C)O)C(=O)N[C@@H](CCC(=O)O)C(=O)N[C@@H](Cc2ccc(O)cc2)C(=O)N[C@@H](Cc2c[nH]c3ccccc23)C(=O)N[C@@H](C)C(=O)N[C@@H](CCC(N)=O)C(=O)N[C@@H](CC(C)C)C(=O)N1)C(=O)N[C@@H](C)C(N)=O` [compound 376] (Ac-AAALTF[R8]EYWAQL[S5]AA[Nle]A-NH2; staple 7-14): in assay [1], the half-inhibitory concentration (IC50) is 10 to 100 nM and the Ki is below 10 nM. In assay [2], the IC50 lay in the range of 10 to 100 nM and the Ki is below 10 nM.
`CCCC[C@H](NC(=O)[C@H](C)NC(=O)[C@H](C)NC(=O)[C@]1(C)CCCC=CCCCCCC[C@@](C)(NC(=O)[C@H](Cc2ccccc2)NC(=O)[C@@H](NC(=O)[C@H](CC(C)C)NC(C)=O)[C@@H](C)O)C(=O)N[C@@H](CCC(=O)O)C(=O)N[C@@H](Cc2ccc(O)cc2)C(=O)N[C@@H](Cc2c[nH]c3ccccc23)C(=O)N[C@@H](C)C(=O)N[C@@H](CCC(N)=O)C(=O)N[C@@H](CC(C)C)C(=O)N1)C(=O)N[C@@H](C)C(=O)N[C@@H](C)C(N)=O` [compound 377] (Ac-LTF[R8]EYWAQL[S5]AA[Nle]AA-NH2; staple 4-11): in assay [1], the 50% inhibitory concentration (IC50) was in the range of 10 to 100 nM and the inhibitory constant (Ki) was in the range of 10 to 100 nM. In addition, in assay [2], the IC50 lay in the range of 10 to 100 nM and the Ki is below 10 nM.
Consider `CCCC[C@H](NC(=O)[C@H](C)NC(=O)[C@H](C)NC(=O)[C@]1(C)CCCC=CCCCCCC[C@@](C)(NC(=O)[C@H](Cc2ccccc2)NC(=O)[C@@H](NC(=O)[C@H](CC(C)C)NC(=O)[C@H](C)NC(C)=O)[C@@H](C)O)C(=O)N[C@@H](CCC(=O)O)C(=O)N[C@@H](Cc2ccc(O)cc2)C(=O)N[C@@H](Cc2c[nH]c3ccccc23)C(=O)N[C@@H](C)C(=O)N[C@@H](CCC(N)=O)C(=O)N[C@@H](CC(C)C)C(=O)N1)C(=O)N[C@@H](C)C(=O)N[C@@H](C)C(N)=O` [compound 378] (Ac-ALTF[R8]EYWAQL[S5]AA[Nle]AA-NH2; staple 5-12), for which the concentration for half-maximal inhibition (IC50) in assay [1] and in assay [2] was 10 to 100 nM each time. Further, the Ki in assay [1] is 10 to 100 nM; in assay [2] it was below 10 nM.
As to `CCCC[C@H](NC(=O)[C@H](C)NC(=O)[C@H](C)NC(=O)[C@]1(C)CCCC=CCCCCCC[C@@](C)(NC(=O)[C@H](Cc2ccccc2)NC(=O)[C@@H](NC(=O)[C@H](CC(C)C)NC(=O)[C@H](C)NC(=O)[C@H](C)NC(C)=O)[C@@H](C)O)C(=O)N[C@@H](CCC(=O)O)C(=O)N[C@@H](Cc2ccc(O)cc2)C(=O)N[C@@H](Cc2c[nH]c3ccccc23)C(=O)N[C@@H](C)C(=O)N[C@@H](CCC(N)=O)C(=O)N[C@@H](CC(C)C)C(=O)N1)C(=O)N[C@@H](C)C(=O)N[C@@H](C)C(N)=O` [compound 379] (Ac-AALTF[R8]EYWAQL[S5]AA[Nle]AA-NH2; staple 6-13), in assay [1], the IC50 lay in the range of 10 to 100 nM and the inhibition constant (Ki) lay in the range of 10 to 100 nM. Moreover, in assay [2], the IC50 lay within 10 to 100 nM and the Ki is below 10 nM.
In the case of `CCCC[C@H](NC(=O)[C@H](C)NC(=O)[C@H](C)NC(=O)[C@]1(C)CCCC=CCCCCCC[C@@](C)(NC(=O)[C@H](Cc2ccccc2)NC(=O)[C@@H](NC(=O)[C@H](CC(C)C)NC(C)=O)[C@@H](C)O)C(=O)N[C@@H](CCC(=O)O)C(=O)N[C@@H](Cc2ccc(O)cc2)C(=O)N[C@@H](Cc2c[nH]c3ccccc23)C(=O)N[C@@H](C)C(=O)N[C@@H](CCC(N)=O)C(=O)N[C@@H](CC2CCC2)C(=O)N1)C(=O)N[C@@H](C)C(=O)N[C@@H](C)C(N)=O` [compound 380] (Ac-LTF[R8]EYWAQ[Cba][S5]AA[Nle]AA-NH2; staple 4-11), in assay [1], the IC50 was 10 to 100 nM and the inhibition constant (Ki) is 10 to 100 nM. In addition, in assay [2], the half-maximal inhibitory concentration (IC50) was in the range of 10 to 100 nM and the inhibition constant (Ki) was below 10 nM.

The IC50 is the point on the concentration scale where inhibition reaches its midpoint. As usually defined, the Ki is a measure of affinity in units of concentration, obtained from inhibition or displacement.
